This note sets out measurements from patent US8440853B2, “Ester compound and use thereof” (Sumitomo Chemical Company, Limited, priority 2010, dated 2013).

What all share (assay type): in vivo
Experiment [1] has as its system German cockroaches (Blattella germanica). The experiment in a line: Knock-down test, oil solution sprayed on German cockroaches (Test Example 2). The conditions noted are these: adult German cockroaches, 0.1% (w/v) oil solution, 1.5 ml sprayed. The procedure: Zero point one (0.1) part of the compound of the present inventions (1), (2),(3) and (5) was dissolved in 10 parts of isopropyl alcohol and the solution was mixed with 89.9 parts of deodorized kerosene to prepare a 0.1% (w/v) oil solution.
Ten adult German cockroaches (Blattella germanica, 5 males and 5 females) were released in a test container (diameter 8.75 cm, 7.5 cm high, the bottom face is made of 16 mesh metallic wire), the inner face on which butter was applied, and the container was set at the bottom of a test chamber (bottom face: 46 cm×46 cm, height: 70 cm).
Each 1.5 ml of the oil solution of the compound of the present invention (1), (2), (3) and (5) was sprayed using a spray gun at a pressure of 0.4 kg/cm^2 from 60 cm higher than the upper face of the container. Thirty seconds after the spraying, the container was pulled out from the chamber. Two minutes after spraying, the number of knocked-down cockroaches was counted and a knock-down ratio was determined (repeated once). A knocked-down ratio was calculated by the following equation. Knocked-down ratio (%)=(Number of knocked-down cockroaches/Number of test cockroaches)×100 The results (2 minutes after spraying) are shown in Table 2.

For experiment [2], the system named is houseflies (Musca domestica). The experiment in a line: Knock-down test, oil solution sprayed into glass chamber with houseflies (Test Example 4). The conditions noted are these: adult houseflies, 0.00625% (w/v) oil solution, 0.7 ml sprayed into 70 cm cubic glass chamber. The procedure:
Zero point zero zero six two five(0.00625) part of the compound of the present invention (1), (3) and (4) was dissolved in 10 parts of isopropyl alcohol, and the solution was mixed with 89.99375 parts of deodorized kerosene to prepare a 0.00625% (w/v) oil solution.
Ten adult houseflies (Musca domestica) were released in a cubic glass chamber having each side of 70 cm, and 0.7 ml of the oil solution of the compound of the present invention (1), (3) and (4) was sprayed into the chamber through a small window on the side of the chamber using a spraying gun at a pressure of 0.9 kg/cm^2. Seven minutes after spraying, the number of knocked-down flies was counted and a knock-down ratio was determined. A knocked-down ratio was calculated by the following equation. Knocked-down ratio (%)=(Number of knocked-down flies/Number of test flies)×100

Experiment [3] has as its system common mosquitoes (Culex pipens pallens). The experiment in a line: Knock-down test, oil solution sprayed into glass chamber with common mosquitoes (Test Example 3). As to conditions: adult female common mosquitoes, 0.00625% (w/v) oil solution sprayed into 70 cm cubic glass chamber. The method, then: Zero point zero zero six two five(0.00625) part of the compound of the present invention (1) was dissolved in 10 parts of isopropyl alcohol, and the solution was mixed with 89.99375 parts of deodorized kerosene to prepare a 0.00625% (w/v) oil solution.
Ten adult female common mosquitoes (Culex pipens pallens) were released in a cubic glass chamber having each side of 70 cm. The oil solution of the compound of the present invention (1) was sprayed into the chamber through a small window on the side of the chamber using a spraying gun at a pressure of 0.9 kg/cm^2. Ten minutes after spraying, the number of knocked-down mosquitoes was counted and a knock-down ratio was determined. A knocked-down ratio was calculated by the following equation. Knocked-down ratio (%)=(Number of knocked-down mosquitoes/Number of test mosquitoes)×100

Experiment [4] concerns American cockroaches (Periplaneta Americana). The experiment in a line: Knock-down test, oil solution sprayed on American cockroaches (Test Example 1). The conditions noted are these: adult American cockroaches, 0.1% (w/v) oil solution, 1.5 ml sprayed. The procedure:
Zero point one (0.1) part of the compound of the present inventions (1) was dissolved in 10 parts of isopropyl alcohol and the solution was mixed with 89.9 parts of deodorized kerosene to prepare a 0.1% (w/v) oil solution.
Six adult American cockroaches (Periplaneta Americana, 3 males and 3 females) were released in a test container (diameter 12.5 cm, 10 cm high, the bottom face is made of 16 mesh metallic wire), the inner face on which butter was applied, and the container was set at the bottom of a test chamber (bottom face: 46 cm×46 cm, height: 70 cm). One point five (1.5) ml of the oil solution of the compound of the present invention (1) was sprayed using a spray gun at a pressure of 0.4 kg/cm^2 from 60 cm higher than the upper face of the container. Thirty seconds after the spraying, the container was pulled out from the chamber. Ten minutes after spraying, the number of knocked-down cockroaches was counted and a knock-down ratio was determined (repeated twice). The knocked-down ratio was calculated by the following equation. Knocked-down ratio (%)=(Number of knocked-down cockroaches/Number of test cockroaches)×100

`CCCCSC(C#N)=C[C@@H]1[C@@H](C(=O)OCc2c(F)c(F)c(COC)c(F)c2F)C1(C)C` [compound of the present invention (2), 4-methoxymethyl-2,3,5,6-tetrafluorobenzyl=(1R)-trans-3-[(1EZ)-2-cyano-2-(butylthio)ethenyl]-2,2-dimethylcyclopropane carboxylate]: the “Knock-down ratio (%) 2 minutes after spraying” value (“Knock-down ratio (%) 2 minutes” for short) in experiment [1] was determined as 100%.

On to `CCSC(C#N)=C[C@@H]1[C@@H](C(=O)OCc2c(F)c(F)c(COC)c(F)c2F)C1(C)C` [compound of the present invention (3), 4-methoxymethyl-2,3,5,6-tetrafluorobenzyl=(1R)-trans-3-[(1EZ)-2-cyano-2-(ethylthio)ethenyl]-2,2-dimethylcyclopropane carboxylate], for which the “Knock-down ratio (%) 2 minutes” value in experiment [1] was found to be 100%. In addition, the “Knock-down ratio (%) 7 minutes after spraying” value in experiment [2] turned out to be 95%.

Turning to `CCSC(C#N)=C[C@@H]1[C@@H](C(=O)OCc2c(F)c(F)c(C)c(F)c2F)C1(C)C` (relative stereo) [compound of the present invention (5), 4-methyl-2,3,5,6-tetrafluorobenzyl=(1R)-trans-3-[(1EZ)-2-cyano-2-(ethylthio)ethenyl]-2,2-dimethylcyclopropane carboxylate], in experiment [1], the “Knock-down ratio (%) 2 minutes” value amounted to 100%.

In the case of `COCc1c(F)c(F)c(COC(=O)[C@@H]2[C@@H](/C=C(\C#N)SC)C2(C)C)c(F)c1F` [compound of the present invention (1), 4-methoxymethyl-2,3,5,6-tetrafluorobenzyl=(1R)-trans-3-[(1E)-2-cyano-2-(methylthio)ethenyl]-2,2-dimethylcyclopropane carboxylate], the “Knock-down ratio (%) 2 minutes” value in experiment [1] came to 100%. In addition, the “Knock-down ratio (%) 7 minutes after spraying” value in experiment [2] turned out to be 100%. In addition, the figures for the “Knock-down ratio (%) 10 minutes after spraying” value in experiment [3] and in experiment [4] were 94% and 100%, respectively.
